Tests used:
Type in all cases: in vivo
[1] = test system: Echinochloa crus-galli; test: Test Example 7: herbicidal effect test by soil application in upland field (low dose); details: Echinochloa crus-galli, 7.5 g per 10 ares, sprayed one day after sowing, 14 days after application, read-out: weed inhibition rate
How it was run: (§1)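 Upland alluvial loam pots, seeds mixed into top 1 cm of soil; one day after sowing, diluted emulsifiable concentrate sprayed on soil at 100 L/10 a, giving 7.5 g active ingredient/10 a. Duplicate pots; weed inhibition rate (%) scored 14 days after application.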

[2] = test system: Digitaria ciliaris; test: as above; details: Digitaria ciliaris, 7.5 g per 10 ares, sprayed one day after sowing, 14 days after application, read-out: weed inhibition rate
How it was run: as §1

[3] = test system: Scirpus juncoides; test: Test Example 1: herbicidal effect test by soil application in paddy rice; details: Schoenoplectiella juncoides, soil, 336 h; 120 g active ingredient per 10 ares; applied immediately after sowing, flooded pots; 14 days after application; read-out: weed inhibition rate
How it was run: (§2)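 Paddy soil in Wagner pots (1/10,000 acre), fertilized and puddled; 30 seeds per species sown at 0–1 cm, flooded to ~3 cm, greenhouse. Water-diluted emulsifiable concentrate dropped onto flooded pots right after sowing at 120 g active ingredient per 10 ares.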

[4] = test system: Echinochloa crus-galli var. formosensis; test: as above; details: Echinochloa crus-galli, soil, 336 h; 120 g active ingredient per 10 ares; applied immediately after sowing, flooded pots; 14 days after application; read-out: weed inhibition rate
How it was run: as §2

[5] = test system: Scirpus juncoides; test: Test Example 2: herbicidal effect test by application during growth period of paddy rice; details: Schoenoplectiella juncoides; 120 g per 10 ares; applied seven days after sowing, flooded pots; 14 days after application; read-out: weed inhibition rate
How it was run: (§3)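 Paddy soil in flooded pots (water depth about 3 cm) was sown with weed seeds and kept in a glass greenhouse. Seven days after sowing, a diluted emulsifiable concentrate was applied by dropper at 120 g active ingredient per 10 ares. Weed inhibition was evaluated 14 days after application, in duplicate.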

[6] = test system: Echinochloa crus-galli var. formosensis; test: as above; details: Echinochloa crus-galli; 120 g per 10 ares; applied seven days after sowing, flooded pots; 14 days after application; read-out: weed inhibition rate
How it was run: as §3

[7] = test system: Echinochloa crus-galli var. formosensis; test: Test Example 6: herbicidal effect test by application during growth period of paddy rice (low dose); details: Echinochloa crus-galli; 7.5 g per 10 ares; applied seven days after sowing, flooded pots; 14 days after application; read-out: weed inhibition rate
How it was run: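 Paddy-soil pots, flooded ~3 cm after sowing weed seeds at 0-1 cm depth, greenhouse-grown. Seven days after sowing, diluted emulsifiable concentrate applied by dropper at 7.5 g active ingredient per 10 ares. Weed inhibition rate (%) scored 14 days after application, in duplicate.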

[8] = test system: Digitaria ciliaris; test: Test Example 4: herbicidal effect test by stem and leaf treatment in upland field; details: Digitaria ciliaris; 120 g per 10 ares; sprayed seven days after sowing, upland soil; 14 days after application; read-out: weed inhibition rate
[9] = test system: Echinochloa crus-galli; test: Test Example 8: herbicidal effect test by stem and leaf treatment in upland field (low dose); details: Echinochloa crus-galli; 7.5 g per 10 ares; sprayed seven days after sowing, upland soil; 14 days after application; read-out: weed inhibition rate
[10] = test system: Digitaria ciliaris; test: as above; details: Digitaria ciliaris; 7.5 g per 10 ares; sprayed seven days after sowing, upland soil; 14 days after application; read-out: weed inhibition rate
[11] = test system: Echinochloa crus-galli; test: Test Example 3: herbicidal effect test by soil application in upland field; details: Echinochloa crus-galli, 120 g per 10 ares, sprayed one day after sowing, 14 days after application, read-out: weed inhibition rate
How it was run: (§4)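 Pre-emergence test: seeds mixed into top 1 cm of alluvial loam upland soil in pots; emulsifiable concentrate diluted in water sprayed on soil one day after sowing at 100 L/10 a, 120 g a.i./10 a. Weed inhibition rate (%) scored at 14 days, in duplicate.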

[12] = test system: Digitaria ciliaris; test: as above; details: Digitaria ciliaris, 120 g per 10 ares, sprayed one day after sowing, 14 days after application, read-out: weed inhibition rate
How it was run: as §4

[13] = test system: Echinochloa crus-galli; test: Test Example 4: herbicidal effect test by stem and leaf treatment in upland field; details: Echinochloa crus-galli; 120 g per 10 ares; sprayed seven days after sowing, upland soil; 14 days after application; read-out: weed inhibition rate
[14] = test system: Echinochloa crus-galli var. formosensis; test: Test Example 5: herbicidal effect test by soil application in paddy rice (low dose); details: Echinochloa crus-galli, soil, 336 h; 7.5 g per 10 ares; applied immediately after sowing, flooded pots; 14 days after application; read-out: weed inhibition rate
How it was run: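 Paddy-soil pots, weeds sown 0–1 cm deep and flooded to about 3 cm in a greenhouse. Emulsifiable concentrate diluted in water and dropped in right after sowing at 7.5 g active ingredient per 10 ares. Duplicates; effect scored 14 days after application.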

CC(C)=CCO[C@@H]1C[C@]2(C(C)C)O[C@@]1(C)C[C@@H]2I [1-732, (1R,2S,4S,5R)-2-iodo-1-isopropyl-4-methyl-5-(3-methylbut-2-enoxy)-7-oxabicyclo[2.2.1]heptane]
≥ 80%: inhibition at 75 g/ha [1] | inhibition at 75 g/ha [2] | pest or weed control at 1200 g/ha [3] | pest or weed control at 1200 g/ha [4] | inhibition at 1200 g/ha [5] | inhibition at 1200 g/ha [6] | inhibition at 75 g/ha [7] | inhibition at 1200 g/ha [8] | inhibition at 75 g/ha [9] | inhibition at 75 g/ha [10] | inhibition at 1200 g/ha [11] | inhibition at 1200 g/ha [12] | inhibition at 1200 g/ha [13] | inhibition at 75 g/ha [14]

CC(C)C12C=CC(C)(O1)C(OCc1ccccc1F)C2 (stereo not shown) [3-754, 5-[(2-fluorophenyl)methoxy]-4-methyl-1-isopropyl-7-oxabicyclo[2.2.1]hept-2-ene]
≥ 80%: inhibition at 75 g/ha [1] | inhibition at 75 g/ha [2] | pest or weed control at 1200 g/ha [3] | pest or weed control at 1200 g/ha [4] | inhibition at 1200 g/ha [5] | inhibition at 1200 g/ha [6] | inhibition at 75 g/ha [7] | inhibition at 1200 g/ha [8] | inhibition at 75 g/ha [9] | inhibition at 75 g/ha [10] | inhibition at 1200 g/ha [11] | inhibition at 1200 g/ha [12] | inhibition at 1200 g/ha [13] | inhibition at 75 g/ha [14]

CC(C)C12CC(OCc3ccccc3Br)C(C)(CC1I)O2 (stereo not shown) [1-1427, 5-[(2-bromophenyl)methoxy]-2-iodo-1-isopropyl-4-methyl-7-oxabicyclo[2.2.1]heptane]
≥ 80%: inhibition at 75 g/ha [1] | inhibition at 75 g/ha [2] | pest or weed control at 1200 g/ha [3] | pest or weed control at 1200 g/ha [4] | inhibition at 1200 g/ha [5] | inhibition at 1200 g/ha [6] | inhibition at 75 g/ha [7] | inhibition at 1200 g/ha [8] | inhibition at 75 g/ha [9] | inhibition at 75 g/ha [10] | inhibition at 1200 g/ha [11] | inhibition at 1200 g/ha [12] | inhibition at 1200 g/ha [13] | inhibition at 75 g/ha [14]

CC(C)C12CC(OCc3ccsc3)C(C)(CC1I)O2 (stereo not shown) [1-1457, 2-iodo-1-isopropyl-4-methyl-5-(3-thienylmethoxy)-7-oxabicyclo[2.2.1]heptane]
≥ 80%: inhibition at 75 g/ha [1] | inhibition at 75 g/ha [2] | pest or weed control at 1200 g/ha [3] | pest or weed control at 1200 g/ha [4] | inhibition at 1200 g/ha [5] | inhibition at 1200 g/ha [6] | inhibition at 75 g/ha [7] | inhibition at 1200 g/ha [8] | inhibition at 75 g/ha [9] | inhibition at 75 g/ha [10] | inhibition at 1200 g/ha [11] | inhibition at 1200 g/ha [12] | inhibition at 1200 g/ha [13] | inhibition at 75 g/ha [14]

CC(C)C12C=CC(C)(O1)C(OCc1ccccn1)C2 (stereo not shown) [3-755, 2-[(1-methyl-4-isopropyl-7-oxabicyclo[2.2.1]hept-5-en-2-yl)oxymethyl]pyridine]
≥ 80%: inhibition at 75 g/ha [1] | inhibition at 75 g/ha [2] | pest or weed control at 1200 g/ha [3] | pest or weed control at 1200 g/ha [4] | inhibition at 1200 g/ha [5] | inhibition at 1200 g/ha [6] | inhibition at 75 g/ha [7] | inhibition at 1200 g/ha [8] | inhibition at 75 g/ha [9] | inhibition at 75 g/ha [10] | inhibition at 1200 g/ha [11] | inhibition at 1200 g/ha [12] | inhibition at 1200 g/ha [13] | inhibition at 75 g/ha [14]

Cc1cccc(C)c1COC1CC2(C(C)C)OC1(C)CC2I (stereo not shown) [1-1445, 5-[(2,6-dimethylphenyl)methoxy]-2-iodo-1-isopropyl-4-methyl-7-oxabicyclo[2.2.1]heptane]
≥ 80%: inhibition at 75 g/ha [1] | inhibition at 75 g/ha [2] | pest or weed control at 1200 g/ha [3] | pest or weed control at 1200 g/ha [4] | inhibition at 1200 g/ha [5] | inhibition at 1200 g/ha [6] | inhibition at 75 g/ha [7] | inhibition at 1200 g/ha [8] | inhibition at 75 g/ha [9] | inhibition at 75 g/ha [10] | inhibition at 1200 g/ha [11] | inhibition at 1200 g/ha [12] | inhibition at 1200 g/ha [13] | inhibition at 75 g/ha [14]

CC(C)C12C=CC(C)(O1)C(OCc1ccccc1)C2 (stereo not shown) [3-752, 4-methyl-5-phenylmethoxy-1-isopropyl-7-oxabicyclo[2.2.1]hept-2-ene]
≥ 80%: inhibition at 75 g/ha [1] | inhibition at 75 g/ha [2] | pest or weed control at 1200 g/ha [3] | pest or weed control at 1200 g/ha [4] | inhibition at 1200 g/ha [5] | inhibition at 1200 g/ha [6] | inhibition at 75 g/ha [7] | inhibition at 1200 g/ha [8] | inhibition at 75 g/ha [9] | inhibition at 75 g/ha [10] | inhibition at 1200 g/ha [11] | inhibition at 1200 g/ha [12] | inhibition at 1200 g/ha [13] | inhibition at 75 g/ha [14]

CO[C@H]1C[C@]2(C)O[C@@]1(C(C)C)C[C@H]2OCc1ccccc1 [1-150, (1R,2S,4S,5R)-5-benzyloxy-1-isopropyl-2-methoxy-4-methyl-7-oxabicyclo[2.2.1]heptane]
≥ 80%: inhibition at 75 g/ha [1] | inhibition at 75 g/ha [2] | pest or weed control at 1200 g/ha [3] | pest or weed control at 1200 g/ha [4] | inhibition at 1200 g/ha [5] | inhibition at 1200 g/ha [6] | inhibition at 75 g/ha [7] | inhibition at 1200 g/ha [8] | inhibition at 75 g/ha [9] | inhibition at 75 g/ha [10] | inhibition at 1200 g/ha [11] | inhibition at 1200 g/ha [12] | inhibition at 1200 g/ha [13] | inhibition at 75 g/ha [14]

CC(C)C12CC(OCc3ccccc3C#N)C(C)(CC1I)O2 (stereo not shown) [1-1436, 2-[(5-iodo-1-methyl-4-isopropyl-7-oxabicyclo[2.2.1]heptan-2-yl)oxymethyl]benzonitrile]
≥ 80%: inhibition at 75 g/ha [1] | inhibition at 75 g/ha [2] | pest or weed control at 1200 g/ha [3] | pest or weed control at 1200 g/ha [4] | inhibition at 1200 g/ha [5] | inhibition at 1200 g/ha [6] | inhibition at 75 g/ha [7] | inhibition at 1200 g/ha [8] | inhibition at 75 g/ha [9] | inhibition at 75 g/ha [10] | inhibition at 1200 g/ha [11] | inhibition at 1200 g/ha [12] | inhibition at 1200 g/ha [13] | inhibition at 75 g/ha [14]

CC(C)=CCO[C@@H]1C[C@]2(C(C)C)O[C@@]1(C)C[C@@H]2Cl [1-612, (1R,2S,4S,5R)-2-chloro-1-isopropyl-4-methyl-5-(3-methylbut-2-enoxy)-7-oxabicyclo[2.2.1]heptane]
≥ 80%: inhibition at 75 g/ha [1] | inhibition at 75 g/ha [2] | pest or weed control at 1200 g/ha [3] | pest or weed control at 1200 g/ha [4] | inhibition at 1200 g/ha [5] | inhibition at 1200 g/ha [6] | inhibition at 75 g/ha [7] | inhibition at 1200 g/ha [8] | inhibition at 75 g/ha [9] | inhibition at 75 g/ha [10] | inhibition at 1200 g/ha [11] | inhibition at 1200 g/ha [12] | inhibition at 1200 g/ha [13] | inhibition at 75 g/ha [14]

COc1ccccc1CO[C@@H]1C[C@]2(C(C)C)O[C@@]1(C)C[C@@H]2I [1-747, (1R,2S,4S,5R)-2-iodo-1-isopropyl-5-[(2-methoxyphenyl)methoxy]-4-methyl-7-oxabicyclo[2.2.1]heptane]
≥ 80%: inhibition at 75 g/ha [1] | inhibition at 75 g/ha [2] | pest or weed control at 1200 g/ha [3] | pest or weed control at 1200 g/ha [4] | inhibition at 1200 g/ha [5] | inhibition at 1200 g/ha [6] | inhibition at 75 g/ha [7] | inhibition at 1200 g/ha [8] | inhibition at 75 g/ha [9] | inhibition at 75 g/ha [10] | inhibition at 1200 g/ha [11] | inhibition at 1200 g/ha [12] | inhibition at 1200 g/ha [13] | inhibition at 75 g/ha [14]

Source: patent EP4707280A1, “1,4-CINEOLE DERIVATIVE AND INTERMEDIATE THEREOF, HERBICIDE CONTAINING SAID DERIVATIVE AS ACTIVE INGREDIENT, METHOD FOR USING HERBICIDE, AND METHOD FOR PREPARING AGROCHEMICAL COMPOSITION” (HOKKO CHEMICAL INDUSTRY CO., LTD., priority 2023, dated 2024)
